Read-outs that look alike come from different tables or passages of the source.
Experiments:
[1] = biological target: T1, glucose-6-phosphate-dehydrogenase (Saccharomyces cerevisiae, UniProt P11412); experiment: Inhibition of the glucose-6-phosphate-dehydrogenase; assay type: biochemical; conditions: 366 nm
T1 construct: purchased Boehringer Mannheim
T1 sequence (P11412 1-505): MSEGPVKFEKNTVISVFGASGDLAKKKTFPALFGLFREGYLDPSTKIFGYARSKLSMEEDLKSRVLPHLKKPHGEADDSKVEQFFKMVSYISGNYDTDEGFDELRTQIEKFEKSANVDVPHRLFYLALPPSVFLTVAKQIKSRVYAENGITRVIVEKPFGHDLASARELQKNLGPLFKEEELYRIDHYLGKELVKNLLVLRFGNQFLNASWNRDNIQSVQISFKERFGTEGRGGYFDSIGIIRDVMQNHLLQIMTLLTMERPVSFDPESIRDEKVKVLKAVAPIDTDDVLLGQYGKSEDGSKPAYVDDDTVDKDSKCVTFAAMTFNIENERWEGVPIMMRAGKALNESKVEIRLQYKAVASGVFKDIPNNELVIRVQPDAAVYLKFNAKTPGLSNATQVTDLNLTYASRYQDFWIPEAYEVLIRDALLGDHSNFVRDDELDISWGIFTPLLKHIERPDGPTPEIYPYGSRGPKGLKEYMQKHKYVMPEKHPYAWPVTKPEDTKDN
Experimental: Measurement of the inhibition of the glucose-6-phosphate-dehydrogenase.
The equilibrium was observed: [drawing 6]
The rate of formation of NADPH is a measure for the enzyme activity; it may be observed by means of the extinction increase at 340,334 or 366 nm per unit of time.
0.025 ml of glucose-6-phosphate-dehydrogenase (Boehringer Mannheim) were filled up to 10 ml of distilled water (solution I). 100 mgm of nicotinamide-adenine-dinucleotide-phosphate were dissolved in 13 ml of distilled water (solution II). 47.2 mgm of glucose-6-phosphate were dissolved in further 10 ml of distilled water (solution III). Simultaneously a buffer solution (solution IV) was prepared as follows:
0.28 gm of triethanolamine-hydrochloride and 1.461 gm of ethylene diaminotetraacetic acid-disodium salt were dissolved in 1 liter of distilled water and adjusted to a pH of 7.6 with sodium hydroxide solution. The substance under test was dissolved in dimethyl formamide or ethanol (solution V). Tested concentrations: 50; 25; 12.5; 6.25; 3.125; 1.56 and 0.78 μg/ml.
0.1 ml of solution I, 0.1 ml of solution II, 2.67 ml of solution IV and 0.03 ml of solution V were mixed and kept at 25° C. for 5 minutes. Then 0.1 ml of solution III was added, mixed and the alteration of extinction was determined spectrophotometrically at 366 nm for 3 minutes.
0.1 ml of solution I, 0.1 ml of solution II, 2.67 ml of solution IV and 0.03 ml of solution V were mixed and kept at 37° C. for 60 minutes. Then 0.1 ml of solution III was added, mixed and the alteration of extinction was measured spectrophotometrically at 366 nm for 3 minutes.
The inhibitory values were calculated from the average values of three measurements (alteration of extinction per minute) compared with controls, which received the pure solvent as the inhibitory solution. Then the ED50 was calculated according to Reed and Muench from the inhibitory values for the various concentrations.

[2] = Compatibility on the skin under occlusion; assay type: in vivo; conditions: cream containing 10% of compound A; over 24 hours under occlusion
[3] = Acute toxicity, LD50 in the mouse; conditions: in vivo, ip, death within 14 days
Experimental: The acute toxicity was determined with mice. The LD50, the dose leading to the death of 50% of the animals within 14 days, was calculated.

HeLa-cell culture = experiment: Inhibition of cell cultures (HeLa); assay type: cell-based; conditions: Homo sapiens, 72 h, 37° C., 3 days, read-out: Minimal inhibitory concentration
Experimental: Measurement of the inhibition of cell cultures
HeLa-cell culture was treated with trypsin and adjusted to a cell number of 150,000 cells/ml of fresh medium. The substance was always dissolved in the same quantity of dimethyl sulfoxide and then further diluted with growth medium. 0.1 ml of the substance-dilutions were added to each well of microtiter plates and then 0.2 ml of cell suspension were added (4 wells per dilution). Several growth controls containing 0.1 ml of growth medium instead of 0.1 ml of substance dilution were put up. After careful mixing, the cultures were incubated at 37° C. for 3 days in a 5% carbon dioxide atmosphere. The reading was effected in comparison with these controls. The results were given as the percentage of the deficiency and degeneration compared to the growth control. […] The data are referred to μg of substance per ml of total medium.

humans = conditions: cited from earlier work
[4] = 25° C., 5 minutes before substrate, read-out: G6PDH-inhibition ED50, Immediate Inhibition (converted)
[5] = 37° C., 60 minutes before substrate, read-out: G6PDH-inhibition ED50, Inhibition of Incubation (converted)

Compound | IC50 [1, 4] | IC50 [1, 5] | compatibility on the skin [2] | LD50 at 336 h [3] | minimal effective concentration (HeLa-cell culture) | allergies in humans (humans)
CCc1c(O)ccc(C(=O)C(F)(F)F)c1O [C, 3-Ethyl-2,4-dihydroxy-trifluoroacetophenone] | 160 µM | 85.4 µM | – | – | – | –
O=C(c1ccc(O)cc1O)C(F)(F)F [Compound A, 2,4-Dihydroxy-trifluoroacetophenone] | > 243 µM | 160 µM | tolerated without irritation | 105 mg/kg | – | –
CCc1cc(C(=O)C(F)(F)F)c(O)cc1O [Compound B, 5-Ethyl-2,4-dihydroxy-trifluoroacetophenone] | 147 µM | 128 µM | – | 88 mg/kg | – | –
COc1ccc(C(=O)C(F)(F)F)c(OC)c1 [D, 2,4-Dimethoxy-trifluoroacetophenone] | > 214 µM | > 214 µM | – | – | 25 µg/mL | –
CCCCCCc1ccc(O)cc1O [hexylresorcinol] | – | – | – | – | – | in some cases cause allergies in humans

From patent US4229479A, “Fluoracylresorcinols as ingredients in pharmaceutical, cosmetic and pesticidal compositions” (Boehringer Ingelheim GmbH, priority 1976, dated 1980)
